Values quoted from earlier work as cited in patent publication US11607386B2, “Liposomes encapsulating adenosine” (New York University, priority 2019, dated 2023).

How the values were obtained:
[1] = not given; remark: listed apart in the source

SMILES: Nc1ncnc2c1ncn2[C@@H]1O[C@H](CO)[C@@H](O)[C@H]1O [adenosine]
- half-life: mere seconds
- solubility of adenosine in water [1]: 7000 µg/mL
